Measured values from US10500178B2, “LTB4 inhibition to prevent and treat human lymphedema” (The Board of Trustees of the Leland Stanford Junior …, priority 2015, dated 2019).

Key:
[1] = test system: acquired lymphedema surgically induced in the tails of female C57BL/6J mice; experiment: mouse-tail model of acquired lymphedema (tail volume, histology); format: in vivo; details: for amelioration of lymphedema (serial tail-volume measurements over 24d): therapies started on post-surgery d3 (late LTB4 antagonism)
Description: Surgical induction of experimental lymphatic vascular insufficiency. […] Briefly, a full-thickness circumferential incision of the skin was made 16 mm distal to the base of the mouse tail under anesthesia. Lymphatic trunks were ablated through controlled, limited cautery application under the surgical microscope. For surgical controls (sham animals), the skin incision alone was performed without lymphatic cautery.
(§1) All small molecule drugs were administered through daily intraperitoneal injection.
Tail volume quantitation. Tail-volume measurements at each designated time were quantified by observers blinded to the treatment status of the subjects. Tail volumes were calculated through a digital photographic technique pre-operatively, and post-operatively (d3, d9, d14, d20, and d24), using an Olympus D520 Zoom digital camera at SHQ resolution at a fixed distance from the subject (37 cm), as previously described. Tail volumes were derived from the measurement of the tail diameter using the truncated cone approximation. Microlymphangiography was performed by injecting FITC-dextran (size: 2000 kDa) subcutaneously into mouse tails on post-surgery d24. Images were taken 20 minutes after injection.
Viral particles were mixed with Lipofectamine 2,000 (5% final vol/vol, Invitrogen) before injection, to increase transduction efficiency. qRT-PCR, immunofluorescence and fluorescence in situ hybridization were used to evaluate the silencing efficiency in the mouse tail skin 24d after surgery.

[2] = test system: VEGFR3, Vegfc, Vegfd; experiment: lymphangiogenic factor levels in HLECs (qRT-PCR, Western blot); format: cell-based, human; details: 400 nM LTB4, 100 ng/ml S1P, 25 μM DAPT
Description: (§2) Western Blot HLECs were lysed with RIPA buffer containing protease and phosphatase inhibitors. Lysates were sonicated briefly and centrifuged. The supernatant was collected and protein concentration was determined by BCA assay. 60 µg of protein were resolved on a 10% SDS-PAGE gel, transferred to a nitrocellulose membrane, blocked with 5% milk and probed with one of the following antibodies: anti-Sphk1 (3297,Cell Signaling); antip-Sphk1(SP1641, ECM Biosciences); anti-NICD (ab8925,Abcam), anti-VEGFR3 (AF743,R&D); anti-DLL4 (ab7280, Abcam). Actin was used to normalize the total protein. Immunofluorescence Immunofluorescence staining was performed using the following primary antibodies: anti-5-LO (3289, Cell Signaling); anti-MPO (ab45977, Abcam); Anti-CD68 (ab22506, Abcam); anti-Prox1(ab101851, Abcam); anti-NICD (ab8925, Abcam), anti-EphrinB2 (AF496,R&D); anti-VEGFR3 (AF743,R&D); anti-Hey1(ab22614, Abcam); Alexa-Fluor-555 Phalloidin (8953,Cell Signaling); anti-DIG(11093274910, Sigma-Aldrich). Negative controls with isotype IgG were run in parallel. Images were acquired by Zeiss 710 confocal microscopy and analyzed using ImageJ software.
Quantitative RT-PCR. Quantitative PCR (qRT-PCR) was performed using FastStart SYBR Green (Roche) on a Lightcycler 480. mRNA expression relative to GAPDH mRNA levels were calculated using the delta-delta threshold cycle (ΔΔCT) method. PCR microarrays were purchased from Qiagen: RT2 Profiler PCR Array 384-Well Format, Mouse Angiogenesis PAMM-024ZA) and VEGF Signaling (330231 PAMM-091ZA). […]

[3] = test system: HLECs; experiment: HLEC lymphangiogenesis (tube formation, migration, wound healing, sprouting); format: cell-based, human; details: for HLEC lymphangiogenesis in the presence of S1P, shS1pr1, shDll4 or DAPT: LTB4-impaired or S1P-treated HLEC cultures
Description: Tube formation assay. Matrigel (BD Matrigel Basement Membrane Matrix Growth Factor Reduced, Phenol Red Free) was thawed on ice overnight, dispersed into 48-well plates (100 μl per well) and allowed to polymerize for 30 minutes at 37° C. Serum starved HLECs were seeded on the Matrigel at a density of 1×10^4 cells per well. Images of four representative fields were taken 10 hrs later. ImageJ software was used to determine total cellular cord length. Migration assay. Cellular migration was evaluated using a modified Boyden chamber assay. Briefly, 2×10^4 serum-starved HLECs in 250 μl serum free medium were seeded in the upper chamber of the trans-well. 750 μl of serum free ECM containing various drugs was placed in the lower chamber. Ten hours later, migrated cells were stained with a modified Giemsa solution (Sigma-Aldrich) for quantification. Wound healing assay. 6×10^5 HLECs were seeded on an Easy Slide (Millipore) the day before the experiment and allowed to form a fully confluent monolayer, and then cells were serum starved for 12 hrs. A 200 μl pipet tip was used to scratch a straight line across the middle of the cell monolayer. Cell debris was removed through PBS washing. Images were taken immediately after the scratch and the same windows were imaged again 12 hrs later. The rate of cell migration was calculated as the average percent wound closure from at least 5 independent experiments using ImageJ software. Fibrin gel sprouting assay. HLECs were first coated overnight onto the Cytodex-3 beads with an approximate concentration of 400 cells per bead. On the following day, the microbeads were transferred to 2.0 mg/ml fibrinogen solution containing 0.15 units/ml of aprotinin. Later, 0.625 units/ml thrombin was added to the mixture to gelatinize the fibrin gel. Endothelial sprouts (vessel outgrowth) were observed within 3 days of culture using phase micrographic images and quantified as number of vessels per bead.

[4] = test system: HLECs; experiment: fibrin gel sprouting assay; format: cell-based, human; details: 400 nM LTB4
Description: Fibrin gel sprouting assay. HLECs were first coated overnight onto the Cytodex-3 beads with an approximate concentration of 400 cells per bead. On the following day, the microbeads were transferred to 2.0 mg/ml fibrinogen solution containing 0.15 units/ml of aprotinin. Later, 0.625 units/ml thrombin was added to the mixture to gelatinize the fibrin gel. Endothelial sprouts (vessel outgrowth) were observed within 3 days of culture using phase micrographic images and quantified as number of vessels per bead.

[5] = test system: lymphatic vessel formation; experiment: Matrigel plug assay (LYVE1, VEGFR3 staining); format: in vivo, mouse; details: Matrigel plugs in SCID mice
Description: Matrigel plug assay. SCID mice (NOD.Cg-Prkdcscid I/2rgtmlWjl/SzJ, The Jackson Laboratory) of 4-6 weeks of age were used for Matrigel plug injection. Two 250 μl Matrigel plugs were subcutaneously injected into the dorsal surface of the mice. Plugs were recovered with the adjacent subcutaneous tissue 14d later. Tissue was then embedded in paraffin and sectioned for staining.

[6] = test system: HLECs; experiment: LTB4-mediated HLEC apoptosis; format: cell-based, human
[7] = test system: Notch (NICD, DLL4); experiment: Western blot of NICD and DLL4 in HLECs; format: cell-based, human
Description: as §2

[8] = test system: HLECs; experiment: tube formation assay on Matrigel; format: cell-based, human; details: 400 nM LTB4; 10 μM U75302+LTB4
Description: Tube formation assay. Matrigel (BD Matrigel Basement Membrane Matrix Growth Factor Reduced, Phenol Red Free) was thawed on ice overnight, dispersed into 48-well plates (100 μl per well) and allowed to polymerize for 30 minutes at 37° C. Serum starved HLECs were seeded on the Matrigel at a density of 1×10^4 cells per well. Images of four representative fields were taken 10 hrs later. […]

[9] = test system: HLECs; experiment: trans-well migration assay; format: cell-based, human; details: 400 nM LTB4
Description: Migration assay. Cellular migration was evaluated using a modified Boyden chamber assay. Briefly, 2×10^4 serum-starved HLECs in 250 μl serum free medium were seeded in the upper chamber of the trans-well. 750 μl of serum free ECM containing various drugs was placed in the lower chamber. Ten hours later, migrated cells were stained with a modified Giemsa solution (Sigma-Aldrich) for quantification.

[10] = test system: HLECs; experiment: NICD and filopodia histology of HLECs; format: cell-based, human
Description: as §2

[11] = test system: Notch transcriptional activity; experiment: CSL luciferase reporter assay in HLECs; format: cell-based, human
Description: pG13-6-CSL luciferase assay. CSL reporter activity was determined as described previously. HLECs (5.0×105) were […] and transfected with both 1 μg CSL luciferase reporter ([…]) and 10 ng Renilla luciferase pRL-SV40 (Promega) using Nucleofactor (Lonza). Luciferase and Renilla activity were then determined with Dual-Luciferase® Reporter Assay System (Promega) and Berthold dual-injection illuminometer.

[12] = test system: p-Sphk1; experiment: Western blot of p-SphK1 in HLECs; format: cell-based, human; details: exogenous LTB4 (400 nM)
Description: as §2

[13] = test system: LTB4; experiment: serum LTB4 levels in lymphedema mice; format: in vivo, mouse; details: therapies initiated on d3, assessed on d24
Description: as §1
Quantification of LTB4, PGE2 and S1P with LC-MS/MS. Briefly, LTB4, PGE2 and S1P were separated from serum with an ACE reverse phase C18 HPLC column. Formic acid 0.5% in 5 mM NH4Ac (A) and formic acid 0.5% in acetonitrile/water (9/1) (B) were used as the mobile phase. […] The internal standard of this method was Carbutamide. The quantification limit was 1 ng/ml. The calibration range was 1-2000 ng/ml.

C[C@H](NC(=O)Cc1cc(F)cc(F)c1)C(=O)N[C@H](C(=O)OC(C)(C)C)c1ccccc1 [DAPT]
effect of adding DAPT to bestatin-therapy in lymphedema ([1]; DAPT 30 mg/kg added to bestatin 4 mg/kg): abrogated the therapeutic benefit of bestatin | VEGFR3 expression and Vegfc, Vegfd transcription [2]: inhibited | HLEC lymphangiogenesis in the presence of S1P, shS1pr1, shDll4 or DAPT [3]: did not abrogate lymphangiogenesis entirely

CCCCC/C=C\C[C@@H](O)/C=C/C=C/C=C\[C@@H](O)CCCC(=O)O [LTB4, leukotriene B4]
sprout formation in 3D-fibrin-gel assay [4]: preventing them from forming sprouts | VEGFR3 expression of HLECs in vivo [5]: inhibited the VEGFR3 expression | lymphatic vessel formation in vivo ([5]; recovered 14d later): attenuated lymphatic vessel formation | LEC apoptosis [6]: induced LEC apoptosis in a concentration-dependent manner | cleaved Notch (NICD) and DLL4 levels [7]: decreased | tube formation (tube area) [8]: decreased tube area | HLEC migration [9]: inhibited HLEC migration | filopodia, nuclear-localized NICD and EphrinB2, cell shape [10]: increased filopodia and less nuclear-localized NICD and EphrinB2 | Notch transcriptional activity (CSL reporter), in words ([11]; LTB4 100-800 nm for 24 h): inhibited Notch transcriptional activity in a dose dependent fashion | reduction of reporter activity ([11]; physiologic (400 nM) levels of LTB4): > 50% | VEGFR3 expression and Vegfc, Vegfd transcription [2]: reduced | concentration dependence of lymphangiogenesis block ([3]; 100 nm, 200 nm, 400 nm or 800 nm LTB4): blocked lymphangiogenesis in a concentration-dependent manner | p-Sphk1 in HLECs [12]: diminished p-Sphk1

CCCc1c(OCCCOc2cc(O)c(-c3ccc(F)cc3)cc2CC)cccc1Oc1ccccc1C(=O)O [Ly293111, 2-[2-propyl-3-[3-[2-ethyl-4-(4-fluorophenyl)-5-hydroxyphenoxy]-propoxy]phenoxy]benzoic acid]
benefit of LTB4 antagonism administered prior to surgery ([1]; therapies administered prior to sham and lymphedema surgery (bestatin, Ly293111 from d0, shLtb4r1 on d(−7))): not beneficial | amelioration of lymphedema (serial tail-volume measurements over 24d) [1]: demonstrated therapeutic amelioration of lymphedema

CCCCCCCCCCCCC/C=C/[C@@H](O)[C@@H](N)COP(=O)(O)O [S1P, sphingosine-1-phosphate]
cleaved Notch (NICD) and DLL4 levels [7]: increased levels | filopodia, nuclear-localized NICD and EphrinB2, cell shape [10]: unified stalk-cell shape and enhanced nuclear localization | increase of reporter activity from base line ([11]; S1P): 3 fold | VEGFR3 expression and Vegfc, Vegfd transcription [2]: increased the expression of these factors | HLEC lymphangiogenesis in the presence of S1P, shS1pr1, shDll4 or DAPT [3]: restored the abnormal HLEC migration, differentiation, sprouting, and vessel formation caused by LTB4

CCCCC/C=C\C[C@@H](O)/C=C/c1cccc(C[C@@H](O)CCCCO)n1 [U75302]
tube formation (tube area) [8]: normalized tube formation

CC(C)Cc1ccc(C(C)C(=O)O)cc1 (centres unmarked) [ibuprofen]
tail swelling ([1]; therapies initiated on d3): not | tail histology (edema, epidermal/dermal junction) ([1]; treatment from d3): unresolved edema, irregular epidermal/dermal junction

CC(C(=O)O)c1cccc(C(=O)c2ccccc2)c1 (centres unmarked) [ketoprofen]
serum LTB4 levels [13]: effectively reduced

CC(c1cc2ccccc2s1)N(O)C(N)=O (centres unmarked) [zileuton, 1-[1-(1-benzothiophen-2-yl)ethyl]-1-hydroxyurea]
amelioration of lymphedema (serial tail-volume measurements over 24d) [1]: demonstrated therapeutic amelioration of lymphedema | serum LTB4 levels [13]: effectively reduced
